Converted amounts (≈) assume the structure as drawn. The source made the active and inactive calls. The rule behind the calls is not given here.
Tests used:
[1] = test system: Mycobacterium tuberculosis; assay: Antimycobacterial activity against Mycobacterium tuberculosis H37Rv […] assessed as confluent growth at 50 ug/ml after 28 days by Lowenstein-Jensen method; format: functional, organism-based
[2] = test system: Mycobacterium tuberculosis; assay: Antimycobacterial activity against Mycobacterium tuberculosis H37Rv […] assessed as bacterial colonies at 200 ug/ml after 28 days by Lowenstein-Jensen method; format: functional
[3] = test system: Mycobacterium tuberculosis; assay: Antimycobacterial activity against Mycobacterium tuberculosis clinical isolate assessed as growth inhibition after 28 days; format: functional, organism-based
[4] = test system: Mycobacterium tuberculosis; assay: Antimycobacterial activity against Mycobacterium tuberculosis H37Rv […] assessed as bacterial colonies at 50 ug/ml after 28 days by Lowenstein-Jensen method; format: functional
[5] = target: Neuronal acetylcholine receptor; alpha4/beta2 (Homo sapiens) (UniProt P17787+P43681); assay: Displacement of [3H]cytisine from human recombinant alpha4beta2 nACh receptor expressed in human SH-SY5Y cells at 1 X 10^-8 M to 1 X 10^-7 M; format: cell-based
[6] = test system: Mycobacterium tuberculosis; assay: Antimycobacterial activity against Mycobacterium tuberculosis H37Rv […] assessed as confluent growth at 200 ug/ml after 28 days by Lowenstein-Jensen method; format: functional, organism-based
[7] = test system: Mycobacterium tuberculosis; assay: Antimycobacterial activity against Mycobacterium tuberculosis clinical isolate assessed as growth inhibition after 5 days by microplate Alamar blue assay; format: functional; conditions: 120 h
[8] = Half life in po dosed Wistar rat plasma
[9] = test system: Mycobacterium tuberculosis; assay: Antimycobacterial activity against Mycobacterium tuberculosis H37Rv […] assessed as growth inhibition at 40 ug/ml after 28 days by Lowenstein-Jensen method; format: functional, organism-based
[10] = Cmax in Wistar rat at 5 mg/kg, iv; format: ADME, organism-based; parameters: dose 5 mg/kg, route intravenous; conditions: in vivo
[11] = Half life in Wistar rat at 5 mg/kg, po; format: ADME, organism-based; conditions: in vivo
[12] = Volume of distribution in Wistar rat at 5 mg/kg, iv; format: ADME, organism-based; conditions: in vivo
Rattus norvegicus = assay: Volume of distribution in Wistar rat at 5 mg/kg, po; format: ADME, organism-based; conditions: in vivo
[13] = Acute toxicity in po dosed overnight fasted Wistar rat; format: organism-based; conditions: in vivo
[14] = Toxicity in Wistar rat administered qd via oral gavage with repeated dose for 28 days; format: organism-based; conditions: in vivo
[15] = Cmax in Wistar rat at 5 mg/kg, po; format: ADME, organism-based; parameters: dose 5 mg/kg, route oral; conditions: in vivo
[16] = Tmax in Wistar rat at 5 mg/kg, po; format: ADME, organism-based; conditions: in vivo
[17] = Half life in Wistar rat at 5 mg/kg, iv; format: ADME, organism-based; conditions: in vivo
[18] = Tmax in Wistar rat at 5 mg/kg, iv; format: ADME, organism-based; conditions: in vivo
[19] = test system: Mycobacterium tuberculosis; assay: Antimycobacterial activity against Mycobacterium tuberculosis H37Rv […] assessed as growth inhibition at 0.2 ug/ml after 28 days by Lowenstein-Jensen method; format: functional, organism-based

Structure (SMILES): CC(=O)c1cccc(-c2cncc(C(=O)C3CCN(C)C3=O)c2)c1 (stereo not given)
- growth inhibition (GI) [1]: inactive
- Activity [2]: >100
- Activity [3]: inactive

Structure (SMILES): Cc1cccc(-c2cncc(C(=O)C3CCN(C)C3=O)c2)c1 (stereo not given)
- Activity [4]: >100
- inhibition [5]: < 10%
- Activity [2]: >100
- Activity [3]: inactive

Structure (SMILES): CN1CCC(C(=O)c2cncc(-c3ccc(F)cc3)c2)C1=O (stereo not given)
- growth inhibition (GI) [6]: inactive
- growth inhibition (GI) [1]: inactive
- inhibition [5]: inactive
- Activity [3]: inactive

Structure (SMILES): CN1CCC(C(=O)c2cncc(-c3cccc4ccccc34)c2)C1=O (stereo not given)
- growth inhibition (GI) [6]: inactive
- growth inhibition (GI) [1]: inactive
- Activity [3]: inactive

Structure (SMILES): COc1cccc(-c2cncc(C(=O)C3CCN(C)C3=O)c2)c1 (stereo not given)
- growth inhibition (GI) [6]: inactive
- growth inhibition (GI) [1]: inactive
- inhibition [5]: inactive
- Activity [3]: inactive

Structure (SMILES): CN1CCC(C(=O)c2cncc(-c3cc(Cl)ccc3Cl)c2)C1=O (stereo not given)
- MIC [7]: 0.286 µM (≈ 100 ng/mL)

Structure (SMILES): CN1CCC(C(=O)c2cncc(-c3ccc(Cl)cc3)c2)C1=O (stereo not given)
- growth inhibition (GI) [6]: inactive
- growth inhibition (GI) [1]: inactive
- Activity [3]: inactive

Structure (SMILES): CN1CCC(C(=O)c2cncc(-c3cccc(Cl)c3Cl)c2)C1=O (stereo not given)
- MIC [7]: 0.0093 µM (≈ 3.25 ng/mL)

Structure (SMILES): CN1CCC(C(=O)c2cncc(-c3cccc(N)c3)c2)C1=O (stereo not given)
- growth inhibition (GI) [6]: inactive
- growth inhibition (GI) [1]: inactive
- Activity [3]: inactive

Structure (SMILES): CN1CCC[C@H]1c1cccnc1 [NICOTINE]
- half-life [8]: 2 h

Structure (SMILES): CCCCc1cncc(C(=O)C2CCN(C)C2=O)c1 (stereo not given)
- growth inhibition (GI) [6]: inactive
- growth inhibition (GI) [1]: inactive
- inhibition [5]: inactive
- Activity [3]: inactive

Structure (SMILES): Cc1ccccc1-c1cncc(C(=O)C2CCN(C)C2=O)c1 (stereo not given)
- growth inhibition (GI) [6]: inactive
- growth inhibition (GI) [1]: inactive
- Activity [3]: inactive

Structure (SMILES): CN1CCC(C(=O)c2cncc(-c3ccc4ccccc4c3)c2)C1=O (stereo not given)
- growth inhibition (GI) [1]: inactive
- Activity [2]: >100
- Activity [3]: inactive

Structure (SMILES): CN1CCC(C(=O)c2cncc(C3CC3)c2)C1=O (stereo not given)
- growth inhibition (GI) [6]: inactive
- growth inhibition (GI) [1]: inactive
- inhibition [5]: inactive
- Activity [3]: inactive

Structure (SMILES): CC(=O)Oc1ccc(-c2cncc(C(=O)C3CCN(C)C3=O)c2)cc1 (stereo not given)
- Activity [4]: >100
- inhibition [5]: inactive
- Activity [2]: >100
- Activity [3]: inactive

Structure (SMILES): CN1CCC(C(=O)c2cncc(-c3ccc(Cl)cc3Cl)c2)C1=O (stereo not given)
- MIC [7]: 0.00286 µM (≈ 0.999 ng/mL)

Structure (SMILES): COc1ccc(-c2cncc(C(=O)C3CCN(C)C3=O)c2)cc1 (stereo not given)
- growth inhibition (GI) [1]: inactive
- inhibition [5]: inactive
- Activity [2]: >100
- Activity [3]: inactive

Structure (SMILES): CO[C@H]1/C=C/O[C@@]2(C)Oc3c(C)c(O)c4c(O)c(c(/C=N/N5CCN(C)CC5)c(O)c4c3C2=O)NC(=O)/C(C)=C\C=C\[C@H](C)[C@H](O)[C@@H](C)[C@@H](O)[C@@H](C)[C@H](OC(C)=O)[C@@H]1C
- growth inhibition (GI) [9]: Active

Structure (SMILES): CN1CCC(C(=O)c2cncc(-c3cc(Cl)cc(Cl)c3)c2)C1=O (stereo not given)
- Cmax [10]: 3370 ng/mL
- half-life [11]: > 24 h
- Vd [12]: 23.2 L
- Activity [4]: >100
- inhibition [5]: inactive
- Vd (Rattus norvegicus): 27.36 L
- Activity [2]: >100
- MIC [7]: 0.0286 µM (≈ 10 ng/mL)
- LD50 [13]: > 2000 mg/kg
- LD50 at 672 h [14]: > 2000 mg/kg
- Cmax [15]: 2860 ng/mL
- Activity [3]: inactive
- Tmax [16]: 1 h
- half-life [17]: 24 h
- Tmax [18]: 3 min

Structure (SMILES): CN1CCC(C(=O)c2cncc(-c3cccc(C=O)c3)c2)C1=O (stereo not given)
- growth inhibition (GI) [6]: inactive
- growth inhibition (GI) [1]: inactive
- inhibition [5]: inactive
- Activity [2]: >100
- Activity [3]: inactive

Structure (SMILES): CN1CCC(C(=O)c2cncc(-c3ccc(C=O)cc3)c2)C1=O (stereo not given)
- growth inhibition (GI) [1]: inactive
- Activity [2]: >100
- Activity [3]: inactive

Structure (SMILES): CN1CCC(C(=O)c2cncc(-c3ccc(Cl)c(Cl)c3)c2)C1=O (stereo not given)
- MIC [7]: 0.179 µM (≈ 62.5 ng/mL)

Structure (SMILES): CN1CCC(C(=O)c2cncc(-c3ccccc3Cl)c2)C1=O (stereo not given)
- growth inhibition (GI) [1]: inactive
- Activity [2]: >100
- Activity [3]: inactive

Structure (SMILES): NNC(=O)c1ccncc1 [ISONIAZID]
- MIC [7]: 0.00145 µM (≈ 0.199 ng/mL)
- growth inhibition (GI) [19]: Active

Structure (SMILES): Cc1ccc(-c2cncc(C(=O)C3CCN(C)C3=O)c2)cc1 (stereo not given)
- growth inhibition (GI) [6]: inactive
- growth inhibition (GI) [1]: inactive
- Activity [3]: inactive

Structure (SMILES): CC(=O)c1ccc(-c2cncc(C(=O)C3CCN(C)C3=O)c2)s1 (stereo not given)
- growth inhibition (GI) [6]: inactive
- growth inhibition (GI) [1]: inactive
- inhibition [5]: inactive
- Activity [3]: inactive

Structure (SMILES): CN1CCC(C(=O)c2cncc(-c3cccc(F)c3)c2)C1=O (stereo not given)
- growth inhibition (GI) [6]: inactive
- growth inhibition (GI) [1]: inactive
- Activity [3]: inactive

Structure (SMILES): CN1CCC(C(=O)c2cncc(-c3ccccc3)c2)C1=O (stereo not given)
- growth inhibition (GI) [6]: inactive
- growth inhibition (GI) [1]: inactive
- inhibition [5]: < 10%
- Activity [3]: inactive

Structure (SMILES): CN1CCC(C(=O)c2cncc(-c3cccc([N+](=O)[O-])c3)c2)C1=O (stereo not given)
- growth inhibition (GI) [1]: inactive
- inhibition [5]: inactive
- Activity [2]: >100
- Activity [3]: inactive

Structure (SMILES): COc1ccccc1-c1cncc(C(=O)C2CCN(C)C2=O)c1 (stereo not given)
- growth inhibition (GI) [6]: inactive
- growth inhibition (GI) [1]: inactive
- Activity [3]: inactive

Structure (SMILES): CN1CCC(C(=O)c2cncc(-c3cccc(O)c3)c2)C1=O (stereo not given)
- growth inhibition (GI) [6]: inactive
- growth inhibition (GI) [1]: inactive
- inhibition [5]: inactive
- Activity [3]: inactive

From ChEMBL document CHEMBL3774391, “Novel nicotine analogues with potential anti-mycobacterial activity” (Bioorg Med Chem, 2016)
